US20230364419A1, “USE OF E[…] ENHANCE THE DELIVERY OF PHARMACEUTICAL AGENTS AND OTHER […] THE SURFACE MUCOSA AND WALL OF THE URETER AND RENAL PELVIS, AND INTO THE RENAL PARENCHYMA” (priority 2022, published 2023)
Entries after “also recorded” stand apart in the source; their conditions may differ.

Columns and labels:
[1] = Methylene blue infusion into the renal pelvis with or without EMDA activation; assay type: in vivo
Experimental: In another example, cystoscopy was used to place a 0.035 in. guidewire into the ureter and pass it up into the renal pelvis. The cystoscope is removed and a 5 to 15 Fr pigtail catheter is advanced over the guidewire; the guidewire is removed. A retrograde pyelogram is performed and the fluid is then drained from the renal pelvis and measured in order to obtain the volume of the renal pelvis. The guidewire is replaced and the pigtail catheter is removed and the EMDA delivery catheter is advanced over the guidewire into the ureter. A fluoroscopic image is obtained to confirm the correct position of the catheter with the proximal tip inside the renal pelvis. The guidewire is removed and the catheter assumes its nonintubated “C” shape along its proximal end; the silver wire is passed into the EMDA catheter (alternatively a pre-assembled catheter will be deployed via a preplaced ureteral access sheath) following the “C” shape of the distal end of the catheter.
For renal pelvis EMDA, an electrical current of 4 mA (using a dedicated EMDA generator) is used in the C-shape catheter to achieve a current density of less than 0.5 mA/cm^2. This value is obtained based on prior work in the bladder with regard to the safety and efficacy of EMDA; the collecting system surface (8 cm^2) was multiplied by 0.5 mA/cm^2. A pulsed current is used during EMDA; however, direct current is also applicable.

[2] = Porcine ureteral EMDA proof-of-concept study: methylene blue infused through the ureteral catheter with or without current; assay type: in vivo, Yorkshire pigs; conditions: for microscopic penetration of methylene blue into the ureteral wall (frozen section / histopathology): 20 min, infusion 5 ml/min
Description: Cystoscopy is used to place a 0.035 in. guidewire into the ureter and up into the renal pelvis. The cystoscope is removed and the EMDA delivery catheter is advanced over the 0.035-inch super-stiff guidewire into the ureter up to the level of the ureteropelvic junction (i.e., not into the renal pelvis). A fluoroscopic image is obtained to confirm the correct position of the catheter in the ureter with the proximal tip just inside the renal pelvis. The 0.035 in. guidewire is removed and the silver wire is passed into the EMDA catheter. The circumference of the tip of silver wire (connected to positive electrode of EMDA generator) is larger than the exit hole in the distal tip of the EMDA catheter and thus its passage stops at the catheter’s tip and occludes the end-hole, thereby preventing any flow of instilled fluid from the tip of the catheter. A dispersing electrode (negative) is placed on the flank area. The EMDA is then activated and the fluid containing the intended medication is instilled at 5 ml/min via a drug infusion pump for 20 minutes.
An electrical current of 10 mA is used to achieve a current density of less than 0.5 mA/cm^2. This value was obtained based on prior work in other areas with regard to the safety and efficacy of EMDA. The ureteral surface was multiplied [20 cm (length)×(circumference≈1 cm) ≈20 cm^2] by 0.5 mA/cm^2. A pulsed or direct current can be used during EMDA.
As proof of concept, a porcine study was performed (IACUC approved protocol: 21-131). A charged molecule, methylene blue, was instilled which is suitable for EMDA because of its net positive charge, small molecular size, and strong blue color. Via the EMDA catheter, a pulsed electrical current of 10 mA was applied for 20 minutes during instillation of the methylene blue solution The pigs were then euthanized and both ureters were harvested. Visually, the difference in the color density in the experimental (EMDA ureter) and control ureter (without EMDA) was apparent.
Two Yorkshire pigs were placed under general anesthesia. Cystoscopy was used to place a 0.035 in. super-stiff™ guidewire into each ureter. A prefabricated ureteral catheter with equidistant (5 mm) fenestrations in three rows was advanced into each ureter. A silver wire was then passed into each ureteral catheter; the circumference of the silver wire was larger than the terminal opening in the catheter such that its passage stopped at the catheter’s tip, thereby preventing any flow of instilled fluid from the tip of the catheter. Methylene blue, a heterocyclic aromatic dye with a net positive charge, was infused through each catheter at a rate of 5 ml/min. In the experimental ureter, a positive pulsed electrical current of 10 mA was applied using a Physionizer® EDMA device. […]

Structure (SMILES): CN(C)c1ccc2nc3ccc(=[N+](C)C)cc-3sc2c1 [methylene blue]
- macroscopic staining of the renal pelvis ([1]; with EMDA activation): Intense staining of the renal pelvis
- microscopic staining of urothelium and submucosa of the renal pelvis ([1]; with EMDA activation): Deep blue staining of urothelium and the submucosa of the renal pelvis
- tissue injury of the renal pelvis (H&E staining) ([1]; with EMDA activation): normal architecture with no signs of acute injury
- macroscopic staining of the renal pelvis ([1]; without EMDA activation): Faint staining of the renal pelvis
- microscopic staining of urothelium and submucosa of the renal pelvis ([1]; without EMDA activation): Blue staining of urothelium with less intensity and negligible methylene blue staining the submucosa of the renal pelvis
- tissue injury of the renal pelvis (H&E staining) ([1]; without EMDA activation): normal architecture with no evidence of injury
- microscopic penetration of methylene blue into the ureteral wall (frozen section / histopathology) ([2]; control ureter, without EMDA): only patchy staining of the urothelium; also recorded: minimal, patchy staining of the urothelial lining with negligible penetration of methylene blue beyond the urothelium; also recorded: patchy methylene blue staining was seen only on the urothelium with negligible deeper penetration
- microscopic penetration of methylene blue into the ureteral wall (frozen section / histopathology) ([2]; experimental ureter, with EMDA, pulsed current 10 mA): could be delivered beyond the urothelium and deeply into the wall of the ureter; also recorded: dense blue staining of the urothelium; also recorded: penetration of methylene blue throughout the wall of the EMDA treated ureter; also recorded: diffuse penetration of methylene blue into the urothelium, lamina propria, muscularis propria, and periureteral tissue
- macroscopic staining of the interior surface of the ureter ([2]; with EMDA): intense staining of the experimental ureter
- macroscopic staining of the interior surface of the ureter ([2]; without EMDA): minimal staining of the urothelial lining
